Results from patent US5717095A, “Nucleotide analogs” (Gilead Sciences, Inc., priority 1996, dated 1998).

Columns and labels:
[1] = tested on: HSV II; test: Inhibition of cytopathic effects by HSV II in MA 104 cells (XTT); type: cell-based, HSV-2
Protocol: Compounds were individually tested for activity against HSV-1 and/or HSV-2. HSV-2 (strain 414-92) was tested using MA 104 cells in the following assay protocol. 96-Well plates were seeded with 1×10^4 MA 104 cells per well using 200 μL minimal essential medium (MEM) containing 10% calf serum per well, and incubated overnight at 37° C. The compounds were dissolved in MEM Earle's Salts without serum. The medium was removed by aspiration and 100 μL MEM Earle's Salts without serum was added to the wells. Serial 3-fold dilutions of the compounds were prepared by serial transfer of 50 μL of medium from wells containing compound to wells lacking compound. The plates were incubated 15 minutes at 37° C. followed by addition of 100 PFU/well of virus in MEM Earle's Salts with 2% fetal bovine serum. The plates were then incubated at 37° C. for three days until approximately 90% of the cells in virus infected control wells containing no compound were killed. Following incubation, medium was aspirated and the wells were washed with sterile PBS. […] The results, shown in Table 6, were expressed as the IC50, the concentration (μM) that inhibits cell killing mediated by HSV-2 by 50%. […] The toxicity of the compounds were expressed as the CC50, the concentration that kills 50% of uninfected cells.

[2] = tested on: herpes simplex virus, type 1 or 2 (HSV-1 and -2); conditions: cited from earlier work
[3] = tested on: varicella zoster virus (VZV); conditions: cited from earlier work
[4] = tested on: adenovirus; conditions: cited from earlier work
[5] = tested on: vaccinia virus; conditions: cited from earlier work
[6] = tested on: HSV-2 (strain 414-92); test: Inhibition of HSV-2 mediated cell killing in MA 104 cells (crystal violet); type: cell-based; conditions: Human alphaherpesvirus 2, MA104, 72 h; MA 104 cells, HSV-2 strain 414-92, three days; read-out: HSV-2 IC50, concentration that inhibits cell killing mediated by HSV-2 by 50%
Protocol: Compounds were individually tested for activity against HSV-1 and/or HSV-2. HSV-2 (strain 414-92) was tested using MA 104 cells in the following assay protocol. 96-Well plates were seeded with 1×10^4 MA 104 cells per well using 200 μL minimal essential medium (MEM) containing 10% calf serum per well, and incubated overnight at 37° C. The compounds were dissolved in MEM Earle's Salts without serum. The medium was removed by aspiration and 100 μL MEM Earle's Salts without serum was added to the wells. Serial 3-fold dilutions of the compounds were prepared by serial transfer of 50 μL of medium from wells containing compound to wells lacking compound. The plates were incubated 15 minutes at 37° C. followed by addition of 100 PFU/well of virus in MEM Earle's Salts with 2% fetal bovine serum. The plates were then incubated at 37° C. for three days until approximately 90% of the cells in virus infected control wells containing no compound were killed. Following incubation, medium was aspirated and the wells were washed with sterile PBS. 100 μL 0.5% crystal violet in 20% methanol was then added to the wells for 5 minutes, aspirated and the wells were washed two or three times with distilled water. 200 μL of 0.01 N HCl was added to the wells and the absorbance of each well at 595 nm was determined. The results, shown in Table 6, were expressed as the IC50, the concentration (μM) that inhibits cell killing mediated by HSV-2 by 50%. […] The toxicity of the compounds were expressed as the CC50, the concentration that kills 50% of uninfected cells.

[7] = Toxicity to uninfected MA 104 cells; type: cell-based; conditions: monkey, read-out: CC50, concentration that kills 50% of uninfected cells
[8] = tested on: KOS strain of HSV-1; test: Activity against KOS strain of HSV-1 in VERO cells; type: cell-based; conditions: Human alphaherpesvirus 1; KOS strain of HSV-1, VERO cells; read-out: HSV-1 EC50, concentration that inhibits cell killing by 50%
Protocol: The compounds were also tested for activity against the KOS strain of HSV-1 in VERO cells. The results, shown in Table 7, were expressed as the EC50, the concentration (μM) that inhibits cell killing mediated by HSV-2 by 50%.

[9] = tested on: HCMV; test: Activity against HCMV in tissue culture (NHDF cell line); type: cell-based; conditions: Human betaherpesvirus 5
Source text: The title compound was synthesized using N^4 -benzoyl HPMPC diethyl ester tritylated at the hydroxyl group as a starting material. The starting material was detritylated using acetic acid and then converted to N^4 -benzoyl HPMPC using TMSBr. The resulting compound was converted to N^4 -benzoyl cHPMPC using DCC and morpholine in pyridine.

| Compound | activity (inhibition of cytopathic effects) [1] | IC50 [6] [µM] | CC50 at 72 h [7] [µM] | other results |
| --- | --- | --- | --- | --- |
| CCOC(=O)c1ccccc1OP(=O)(COCCn1cnc2c(N)ncnc21)Oc1ccccc1C(=O)OCC | active | – | – | – |
| Nc1nc(N)c2ncn(C[C@@H](CO)OCP(=O)(O)O)c2n1 [(S)-HPMPDAP] | – | – | – | antiviral activity [2]: active |
| Nc1nc2c(ncn2C[C@@H](CO)OCP(=O)(O)O)c(=O)[nH]1 [(S)-HPMPG] | – | – | – | antiviral activity [2]: active |
| Nc1ncnc2c1ncn2C[C@H]1COP(=O)(O)CO1 [(S)-cyclic HPMPA] | – | – | – | antiviral activity [2]: active; antiviral activity [3]: active; antiviral activity [4]: active; antiviral activity [5]: active |
| CC(NP(=O)(COCCn1cnc2c(N)ncnc21)NC(C)C(=O)OCc1ccccc1)C(=O)OCc1ccccc1 (stereo not shown) [Ex 1, bis(alanyl benzyl ester)PMEA] | – | 20 | > 100 | – |
| Nc1ncnc2c1ncn2CCOCP(=O)(NC(Cc1ccccc1)C(=O)OCc1ccccc1)NC(Cc1ccccc1)C(=O)OCc1ccccc1 (stereo not shown) [Ex 2] | – | 4 | 20 | – |
| Nc1ncnc2c1ncn2CCOCP(=O)(NCC(=O)OCc1ccccc1)NCC(=O)OCc1ccccc1 [Ex 4, bis(glycyl benzyl ester)PMEA] | – | 60 | > 100 | – |
| CCOC(=O)C(C)NP(=O)(COCCn1cnc2c(N)ncnc21)NC(C)C(=O)OCC (stereo not shown) [Ex 5] | – | > 100 | > 100 | – |
| CCOC(=O)C(CC(C)C)NP(=O)(COCCn1cnc2c(N)ncnc21)NC(CC(C)C)C(=O)OCC (stereo not shown) [Ex 6] | – | 33 | > 100 | EC50 [8]: 20 µM |
| CCOC(=O)CNP(=O)(COCCn1cnc2c(N)ncnc21)NCC(=O)OCC [Ex 7] | – | > 100 | > 100 | EC50 [8]: > 200 µM |
| CC(C)CC(NP(=O)(COCCn1cnc2c(N)ncnc21)NC(CC(C)C)C(=O)OC(C)(C)C)C(=O)OC(C)(C)C (stereo not shown) [Ex 9] | – | 63 | > 100 | EC50 [8]: 63 µM |
| CC(NP(=O)(COCCn1cnc2c(N)ncnc21)NC(C)C(=O)OC(C)(C)C)C(=O)OC(C)(C)C (stereo not shown) [Ex 10] | – | > 100 | > 100 | EC50 [8]: > 200 µM |
| CC(C)(C)OC(=O)CNP(=O)(COCCn1cnc2c(N)ncnc21)NCC(=O)OC(C)(C)C [Ex 11] | – | > 100 | > 100 | EC50 [8]: > 200 µM |
| CCOC(=O)C(Cc1ccccc1)NP(=O)(COCCn1cnc2c(N)ncnc21)NC(Cc1ccccc1)C(=O)OCC (stereo not shown) [Ex 12] | – | 20 | 80 | – |
| O=C(Nc1ccn(C[C@H]2COP(=O)(O)CO2)c(=O)n1)c1ccccc1 [N^4 -benzoyl cHPMPC] | – | – | – | IC50 [9]: 22 µM |
| CCOc1ccccc1OP(=O)(COCCn1cnc2c(N)ncnc21)Oc1ccccc1OCC [bis(2-ethoxyphenyl)PMEA, Bis(2-ethoxyphenyl)PMEA] | active | – | – | – |
| CN(C)c1cccc(OP(=O)(COCCn2cnc3c(N)ncnc32)Oc2cccc(N(C)C)c2)c1 [bis(3-dimethylaminophenyl)PMEA] | active | – | – | – |
| COc1cccc(OP(=O)(COCCn2cnc3c(N)ncnc32)Oc2cccc(OC)c2)c1 [bis(3-methoxyphenyl)PMEA] | active | – | – | – |
| Nc1ncnc2c1ncn2CCOCP(=O)(Oc1ccc(F)cc1)Oc1ccc(F)cc1 [bis(4-fluorophenyl)PMEA] | active | – | – | – |
| Nc1ncnc2c1ncn2CCOCP(=O)(OCOC(=O)C12CC3CC(CC(C3)C1)C2)OCOC(=O)C12CC3CC(CC(C3)C1)C2 [bis(adamantoyl oxymethyl)PMEA, bis(adamantoyl oxymethyl)PMEA ester] | active | – | – | – |
| Nc1ncnc2c1ncn2CCOCP(=O)(Oc1ccccc1)Oc1ccccc1 [bis(phenyl)PMEA, Bis(phenyl)PMEA] | active | – | – | – |
| Nc1ncnc2c1ncn2CCOCP(=O)(O)Oc1ccccc1 [monophenylPMEA, monophenyl ester of PMEA] | active | – | – | – |
